Here are results for 8 compounds from US10513521B2, “Compositions and methods for inhibiting BMP” (The Brigham and Women's Hospital, Inc., priority 2014, dated 2019).

The target in assay [1] is T1, ALK2 (Mus musculus, UniProt P37172).
T1 construct: The C2C12 cell line was selected for the measurement of ALK2 activity using BMP6 as the agonist; host or cells: C2C12
T1 sequence (P37172 21-509): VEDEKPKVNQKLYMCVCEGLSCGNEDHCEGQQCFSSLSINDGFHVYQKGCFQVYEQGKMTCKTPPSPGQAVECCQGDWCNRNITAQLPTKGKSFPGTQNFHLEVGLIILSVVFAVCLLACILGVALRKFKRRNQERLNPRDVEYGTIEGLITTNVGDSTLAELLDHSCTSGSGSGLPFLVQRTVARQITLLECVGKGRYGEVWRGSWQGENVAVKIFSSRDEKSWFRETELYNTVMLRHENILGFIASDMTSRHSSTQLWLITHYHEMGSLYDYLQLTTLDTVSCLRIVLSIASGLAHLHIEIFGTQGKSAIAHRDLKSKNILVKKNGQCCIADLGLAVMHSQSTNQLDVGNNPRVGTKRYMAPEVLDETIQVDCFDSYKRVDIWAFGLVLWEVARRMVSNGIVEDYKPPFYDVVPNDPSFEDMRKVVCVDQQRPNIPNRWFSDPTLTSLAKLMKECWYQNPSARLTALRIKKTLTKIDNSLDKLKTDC
The assay is described as follows: HTRF pSMAD1 cell-based ALK2 assay (C2C12 cells, BMP6 as agonist). The method, boiled down:
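Phospho-SMAD1 HTRF readout, detection incubated overnight at room temperature. Before that: starved cells in 0.1% FBS for 4 h, 30 min compound pretreatment, then 30 min agonist, BMP6 on C2C12 or BMP9 on BAOEC.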

The nature of assay [2]: Cell-based assay, TGFb1 (Cell IC50).
The target in a further assay is ALK1 (Homo sapiens, UniProt P37023). Put plainly: TR-FRET enzymatic ALK kinase assay, ALK1. (In TR-FRET formats the signal depends on donor and acceptor labels being close together.)
Sequence of ALK1 (P37023 22-503): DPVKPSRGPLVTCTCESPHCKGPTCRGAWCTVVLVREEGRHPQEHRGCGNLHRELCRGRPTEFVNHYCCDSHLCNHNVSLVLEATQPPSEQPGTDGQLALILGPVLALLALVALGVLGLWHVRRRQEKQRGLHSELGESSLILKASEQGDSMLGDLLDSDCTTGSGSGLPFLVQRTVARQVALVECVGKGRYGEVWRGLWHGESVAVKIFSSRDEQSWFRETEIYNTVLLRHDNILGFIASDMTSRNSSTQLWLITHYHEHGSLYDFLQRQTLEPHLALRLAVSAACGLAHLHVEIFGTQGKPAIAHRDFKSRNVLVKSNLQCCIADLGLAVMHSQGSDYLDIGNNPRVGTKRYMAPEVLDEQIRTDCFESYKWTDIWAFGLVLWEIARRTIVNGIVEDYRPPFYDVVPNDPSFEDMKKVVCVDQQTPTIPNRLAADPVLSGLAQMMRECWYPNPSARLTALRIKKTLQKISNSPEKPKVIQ
In assay [3] the target is T2, ALK2 (Homo sapiens, UniProt Q04771).
T2 sequence (Q04771 21-509): T1 sequence (P37172 21-509) with V1M, Q10P, I121L, E162D, S310P
Put plainly: TR-FRET enzymatic ALK kinase assay, ALK2.
Experimental: (§1) Briefly, the ALKs enzymatic assay was initiated by dispense 2.5 μl enzyme in 1× kinase reaction buffer. The assay plate was then added with compounds followed by incubation at room temperature for 10 minutes. Then 2.5 μl/well substrate was added.

For another assay, the target named is ALK6 (Homo sapiens, UniProt O00238). The assay is described as follows: TR-FRET enzymatic ALK kinase assay, ALK6.
Sequence of ALK6 (O00238 14-502): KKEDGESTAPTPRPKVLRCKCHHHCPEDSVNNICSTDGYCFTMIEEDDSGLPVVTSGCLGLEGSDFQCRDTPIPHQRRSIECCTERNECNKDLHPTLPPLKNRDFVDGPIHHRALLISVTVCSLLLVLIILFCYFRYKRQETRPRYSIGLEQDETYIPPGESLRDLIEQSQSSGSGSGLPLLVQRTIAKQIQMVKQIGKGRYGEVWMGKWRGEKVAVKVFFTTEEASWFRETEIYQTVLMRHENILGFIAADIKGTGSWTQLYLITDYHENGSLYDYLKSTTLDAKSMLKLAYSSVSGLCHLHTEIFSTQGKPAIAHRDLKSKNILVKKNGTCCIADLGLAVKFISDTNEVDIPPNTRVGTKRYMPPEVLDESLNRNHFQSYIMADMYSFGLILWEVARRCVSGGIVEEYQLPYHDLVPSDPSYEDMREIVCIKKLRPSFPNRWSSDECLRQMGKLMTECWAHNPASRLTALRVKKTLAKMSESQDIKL
In another assay the target is ALK3 (Homo sapiens, UniProt P36894). Put plainly: TR-FRET enzymatic ALK kinase assay, ALK3.
Sequence of ALK3 (P36894 24-532): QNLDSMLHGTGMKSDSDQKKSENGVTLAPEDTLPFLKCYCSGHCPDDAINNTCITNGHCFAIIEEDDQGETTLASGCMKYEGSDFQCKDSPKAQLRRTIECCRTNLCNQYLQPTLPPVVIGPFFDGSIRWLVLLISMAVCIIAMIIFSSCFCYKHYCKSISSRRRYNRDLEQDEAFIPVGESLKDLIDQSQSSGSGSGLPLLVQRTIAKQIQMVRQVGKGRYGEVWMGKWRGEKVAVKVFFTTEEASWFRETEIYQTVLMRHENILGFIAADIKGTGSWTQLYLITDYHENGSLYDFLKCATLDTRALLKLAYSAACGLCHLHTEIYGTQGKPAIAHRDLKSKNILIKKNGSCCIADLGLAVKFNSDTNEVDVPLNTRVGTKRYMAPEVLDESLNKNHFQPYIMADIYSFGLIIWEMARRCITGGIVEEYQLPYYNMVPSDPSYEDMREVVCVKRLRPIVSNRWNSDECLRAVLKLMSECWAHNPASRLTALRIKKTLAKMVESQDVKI
In the next assay the target is T3, ALK4 (Homo sapiens, UniProt P36896).
T3 sequence (P36896 24-505): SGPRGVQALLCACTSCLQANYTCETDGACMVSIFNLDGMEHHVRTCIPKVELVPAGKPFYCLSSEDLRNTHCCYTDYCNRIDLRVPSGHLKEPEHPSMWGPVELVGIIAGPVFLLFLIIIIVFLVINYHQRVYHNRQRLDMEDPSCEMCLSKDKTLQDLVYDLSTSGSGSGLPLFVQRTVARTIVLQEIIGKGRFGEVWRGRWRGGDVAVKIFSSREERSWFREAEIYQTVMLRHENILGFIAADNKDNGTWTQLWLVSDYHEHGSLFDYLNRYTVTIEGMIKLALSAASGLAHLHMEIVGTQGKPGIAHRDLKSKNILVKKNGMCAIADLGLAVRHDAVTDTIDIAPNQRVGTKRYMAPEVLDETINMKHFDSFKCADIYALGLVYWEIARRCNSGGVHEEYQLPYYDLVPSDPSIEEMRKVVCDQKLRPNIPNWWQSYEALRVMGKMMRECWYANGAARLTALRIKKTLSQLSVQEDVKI
Put plainly: TR-FRET enzymatic ALK kinase assay, ALK4.

For a further assay, the target named is T4, ALK5 (Homo sapiens, UniProt P36897).
T4 sequence (P36897 34-503): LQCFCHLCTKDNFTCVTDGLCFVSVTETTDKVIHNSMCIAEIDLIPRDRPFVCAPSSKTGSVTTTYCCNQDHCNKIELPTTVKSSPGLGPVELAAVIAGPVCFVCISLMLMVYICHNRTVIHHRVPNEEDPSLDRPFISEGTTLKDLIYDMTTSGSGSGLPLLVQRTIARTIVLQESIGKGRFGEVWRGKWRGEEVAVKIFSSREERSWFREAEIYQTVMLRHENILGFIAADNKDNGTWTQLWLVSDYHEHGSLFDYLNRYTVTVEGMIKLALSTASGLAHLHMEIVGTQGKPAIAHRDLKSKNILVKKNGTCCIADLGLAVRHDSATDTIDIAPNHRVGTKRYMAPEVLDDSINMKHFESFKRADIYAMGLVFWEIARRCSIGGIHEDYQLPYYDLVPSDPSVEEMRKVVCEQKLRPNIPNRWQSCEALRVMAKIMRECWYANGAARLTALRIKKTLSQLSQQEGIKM
Put plainly: TR-FRET enzymatic ALK kinase assay, ALK5.

Where [4] appears, read: cell-based assay, BMP6, read-out: Cell IC50 BMP6.

Positions count from the first letter of the chain named. pIC50: −log10 of the molar value. Where two headings read alike, the source gives them in different places.

Experimental for ALK1: as §1
Experimental for ALK3: as §1
Experimental for ALK4: as §1
Experimental for ALK5: Six ALK kinase enzyme assays were developed for determination of compound activities on ALK1, ALK2, ALK3, ALK4, ALK5 and ALK6.
as §1
Experimental for ALK6: as §1

Turning to `CN(C)C(=O)c1ccc(-c2cnn3cc(-c4ccc(N5CCNCC5)cc4)cnc23)c2ccccc12` [Compound 4, N,N-dimethyl-4-(6-(4-(piperazin-1-yl)phenyl)pyrazolo[1,5-a]pyrimidin-3-yl)-1-naphthamide], the pIC50 at ALK2 [1] (setting [4]) is 6.23; in assay [2], 4.97; on ALK1 it was 4.81; on ALK2 [3], 5.55; on ALK6, 4.12.

Regarding `C[C@@H]1CNC[C@H](C)N1c1ccc(-c2cnc3c(-c4ccc(CN)c5ccccc45)cnn3c2)cc1` [Compound 23, (4-(6-(4-((2R,6S)-2,6-dimethylpiperazin-1-yl)phenyl)pyrazolo[1,5-a]pyrimidin-3-yl)naphthalen-1-yl)methanamine], the pIC50 at ALK2 [1] (setting [4]) is 7.48; in assay [2], 4.97; against ALK1, 5.02; against ALK2 [3] it was 5.28.

Consider `CNC(=O)c1ccc(-c2cnn3cc(-c4ccc(N5CCNCC5)cc4)cnc23)c2ccccc12` [Compound 3, N-methyl-4-(6-(4-(piperazin-1-yl)phenyl)pyrazolo[1,5-a]pyrimidin-3-yl)-1-naphthamide], for which the pIC50 at ALK2 [1] (setting [4]) was 5.50; in assay [2] it was 4.82; against ALK1, 4.71; against ALK2 [3] it was 5.76; against ALK3, 4.74.

Turning to `c1cc(-c2nn[nH]n2)cc(-c2cnn3cc(-c4ccc(CCN5CCCCC5)cc4)cnc23)c1` [Compound 89, 3-(3-(2H-tetrazol-5-yl)phenyl)-6-(4-(2-(piperidin-1-yl)ethyl)phenyl)pyrazolo[1,5-a]pyrimidine], the pIC50 in assay [2] was 4.91; against ALK1 it was 5.15; on ALK2 [3], 7.85; at ALK3, below 5.00; on ALK4 it was below 5.00; against ALK5, below 5.00. The compound also had a pIC50 at ALK6 below 5.00.

Turning to `CC(O)c1cccc(-c2cnn3cc(-c4ccc(C5(C)CCNCC5)cc4)cnc23)c1` (stereo not shown) [Compound 136, 1-(3-(6-(4-(4-methylpiperidin-4-yl)phenyl)pyrazolo[1,5-a]pyrimidin-3-yl)phenyl)ethanol], the pIC50 on ALK2 [1] (HTRF assay, BMP6 as agonist, C2C12 cells, read-out: BMP6 HTRF) is 6.42; against ALK1, 6.66; on ALK2 [3], 7.24; at ALK3 it was 5.54; at ALK4, below 5.00; against ALK5, below 5.00. For the same compound, at ALK6, the pIC50 is below 5.00.

Consider `CC(O)c1cccc(-c2cnn3cc(-c4ccc(CN5CCCCC5)cc4)cnc23)c1` (stereo not shown) [Compound 124, 1-(3-(6-(4-(piperidin-1-ylmethyl)phenyl)pyrazolo[1,5-a]pyrimidin-3-yl)phenyl)ethanol], for which the pIC50 was 8.27 at ALK2 [1] (setting [4]); 6.36 on ALK1; 7.00 against ALK2 [3]; below 5.00 at ALK3; below 5.00 against ALK4; below 5.00 against ALK5. Also, at ALK6, the pIC50 is below 5.00.

Take `O=[S+]([O-])(c1cccc(-c2cnn3cc(-c4ccc(CCN5CCCCC5)cc4)cnc23)c1)C1CC1` [Compound 112, 3-(3-(cyclopropylsulfonyl)phenyl)-6-(4-(2-(piperidin-1-yl)ethyl)phenyl)pyrazolo[1,5-a]pyrimidine]: the pIC50 on ALK2 [1] (setting [4]) is 8.10; on ALK1, 5.89; against ALK2 [3], 7.10; on ALK3, 5.09; against ALK4, below 5.00; on ALK5, below 5.00. The compound further gave a pIC50 against ALK6 of 5.01.

On to `CN(C)CCc1ccc(-c2cnc3c(-c4ccc(S(N)(=O)=O)c5ccccc45)cnn3c2)cc1` [Compound 68, 4-(6-(4-(2-(dimethylamino)ethyl)phenyl)pyrazolo[1,5-a]pyrimidin-3-yl)naphthalene-1-sulfonamide], for which the pIC50 on ALK2 [1] (setting [4]) was 6.02; on ALK1, 6.17; at ALK2 [3], 6.70; at ALK3, below 5.00; at ALK4 it was below 5.00; against ALK5, below 5.00. On ALK6, the pIC50 is below 5.00.
